The values below come from patent US20180243325A1, “METHOD FOR INHIBITING ABSORPTION OF AND/OR PROMOTING EXCRETION OF LIPIDS USING D-PSICOSE” (CJ CHEILJEDANG CORPORATION, priority 2015, published 2018).

The first experiment deals with high-fat diet-induced obese mice. The experiment is described as follows: Body weight, organ weight and adipose tissue weight of high-fat diet-induced obese mice. Format: in vivo, C57BL/6J mice. As to conditions: FIG. 1, HFD+5% w/w in diet, measured biweekly over 16 weeks. The protocol: (§1) First, 4-week-old male C57BL/6J mice (60 total) were purchased from Jackson Laboratory. The animals were acclimated to the vivarium in a thermo-hygrostat (20-23° C., 45-65%) under a 12 h light/dark cycle and fed a pelletized commercial non-purified diet for 1 week after arrival. The mice were then randomly divided into 6 groups (n=10) and fed the respective experimental diets for 16 weeks: normal diet group (ND, American Institute of Nutrition (AIN)-76 semi-synthetic diet), high-fat diet group (HFD, 20% fat+1% cholesterol based on AIN-76 diet), PSI group (HFD+5% D-psicose, w/w, Sigma Chemical Company), ERY group (HFD+5% erythritol, w/w, Sigma Chemical Company), GLU group (HFD+5% D-glucose, w/w, Sigma Chemical Company), and FRU group (HFD+5% D-fructose, w/w, Sigma Chemical Company). All high-fat diet-fed groups were allowed to ingest the same calories by pair feeding based on the PSI group. The mice had ad libitum access to distilled water during the experimental period. Their feed intakes and body weights were measured daily and biweekly, respectively. The organ weights and the adipose tissue weights of the mice were measured after sacrificing the animals.
Turning to `O=C(CO)[C@H](O)[C@H](O)[C@H](O)CO` [PSI, D-psicose], the “increases in the body weight over time” value was “considerably inhibited from 4 weeks after diet feeding”.

Staying with this experiment, now noted: HFD+5% w/w in diet, 16 weeks.
In the case of `OC[C@@H](O)[C@@H](O)CO` [ERY, erythritol], the “Adipose times weight: Epididymal fat” value is 7.92 g/100 g Body weight, the “Adipose times weight: Interscapular BAT” value was determined as 0.57 g/100 g Body weight, the “Adipose times weight: Interscapular WAT” value was found to be 4.56 g/100 g Body weight and the “Adipose times weight: Mesentery fat” value was 2.43 g/100 g Body weight. The “Adipose times weight: Perinephric fat” value is recorded as 0.92 g/100 g Body weight, the “Adipose times weight: Retroperitoneum fat” value is reported as 2.21 g/100 g Body weight, the “Adipose times weight: Subcutaneous fat” value worked out at 4.88 g/100 g Body weight and the “Adipose times weight: Total WAT” value stood at 22.93 g/100 g Body weight. For the same molecule, the “Adipose times weight: Visceral fat” value came out at 18.36 g/100 g Body weight, the “BWG (weight gain)” value turned out to be 1.32 g/16 weeks, the “FER (food efficiency ratio = Weight gain/diet intake)” value came out at 0.059 and the FinalBodyweight is on record as 40.22 g. Moreover, the “Organ weights: Kidney” value is 0.77 g/100 g Bodyweight, the “Organ weights: Liver” value is given as 5.37 g/100 g Bodyweight and the “Organ weights: Muscle” value turned out to be 0.77 g/100 g Bodyweight.
As to `O=C[C@H](O)[C@@H](O)[C@H](O)[C@H](O)CO` [GLU, D-glucose], the “Adipose times weight: Epididymal fat” value was found to be 8.42 g/100 g Body weight, the “Adipose times weight: Interscapular BAT” value was 0.71 g/100 g Body weight, the “Adipose times weight: Interscapular WAT” value was determined as 4.54 g/100 g Body weight and the “Adipose times weight: Mesentery fat” value is recorded as 2.62 g/100 g Body weight. For the same molecule, the “Adipose times weight: Perinephric fat” value was 1.15 g/100 g Body weight, the “Adipose times weight: Retroperitoneum fat” value was determined as 2.01 g/100 g Body weight, the “Adipose times weight: Subcutaneous fat” value is 5.47 g/100 g Body weight and the “Adipose times weight: Total WAT” value was found to be 24.21 g/100 g Body weight. In addition, the “Adipose times weight: Visceral fat” value is reported as 19.67 g/100 g Body weight, the “BWG (weight gain)” value stood at 1.39 g/16 weeks, the “FER (food efficiency ratio = Weight gain/diet intake)” value stood at 0.065 and the FinalBodyweight was found to be 41.77 g. In addition, the “Organ weights: Kidney” value was found to be 0.74 g/100 g Bodyweight, the “Organ weights: Liver” value stood at 5.22 g/100 g Bodyweight and the “Organ weights: Muscle” value is reported as 0.82 g/100 g Bodyweight.
For the molecule `O=C(CO)[C@H](O)[C@H](O)[C@H](O)CO` [PSI, D-psicose], the “BWG (weight gain)” value was 0.70 g/16 weeks and the “Organ weights: Liver” value is given as 4.35 g/100 g Bodyweight.
Take `O=C(CO)[C@@H](O)[C@H](O)[C@H](O)CO` [FRU, D-fructose]: the “Adipose times weight: Epididymal fat” value was found to be 8.50 g/100 g Body weight, the “Adipose times weight: Interscapular BAT” value is recorded as 0.73 g/100 g Body weight, the “Adipose times weight: Interscapular WAT” value is on record as 4.43 g/100 g Body weight and the “Adipose times weight: Mesentery fat” value was 2.93 g/100 g Body weight. Further, the “Adipose times weight: Perinephric fat” value is 1.17 g/100 g Body weight, the “Adipose times weight: Retroperitoneum fat” value is given as 2.19 g/100 g Body weight, the “Adipose times weight: Subcutaneous fat” value is recorded as 3.78 g/100 g Body weight and the “Adipose times weight: Total WAT” value is 22.65 g/100 g Body weight. In addition, the “Adipose times weight: Visceral fat” value is reported as 18.22 g/100 g Body weight, the “BWG (weight gain)” value came to 1.39 g/16 weeks, the “FER (food efficiency ratio = Weight gain/diet intake)” value worked out at 0.065 and the FinalBodyweight turned out to be 41.26 g. In addition, the “Organ weights: Kidney” value is given as 0.84 g/100 g Bodyweight, the “Organ weights: Liver” value was 5.68 g/100 g Bodyweight and the “Organ weights: Muscle” value came to 0.83 g/100 g Bodyweight.

Staying with this experiment, now noted: HFD+5% w/w in diet, 16 weeks; listed as D-psicose.
Consider `O=C(CO)[C@H](O)[C@H](O)[C@H](O)CO` [PSI, D-psicose], for which the “Organ weights: Liver” value was “to levels similar to those of the ND group”.

Another experiment shares this test system. Nature of the experiment: Plasma lipid profiles of high-fat diet-induced obese mice. Format: in vivo, C57BL/6J mice. As to conditions: HFD+5% w/w in diet, 16 weeks. The procedure: as §1, with “animals. Plasma free fatty acid, phospholipid, apolipoprotein A-I (Apo A-I), and apolipoprotein B (ApoB B) levels were measured using Nittobo enzymatic kits (Nittobo medical Co., Tokyo, Japan). Plasma HDL-cholesterol, triglyceride (TG), and total cholesterol (total-C) levels were measured using Asan enzymatic kits (Asan, Seoul, South Korea).” for “animals.”
As to `OC[C@@H](O)[C@@H](O)CO` [ERY, erythritol], the “AI, atherogenic index, [(Total C) − HDL-C)]/HDL-C” value (“AI, atherogenic index” for short) is reported as 3.55; the “APO-A I/APO-B” value worked out at 3.16; the ApoA-I came out at 27.28 mg/dL; the ApoB is 8.61 mg/dL. Besides, the “FFA (plasma free fatty acid)” value was found to be 0.53 mmol/L; the HDL-C is listed as 1.22 mmol/L; the “HTR, (HDL-C/Total-C) × 100” value was determined as 23.95; the “PL (plasma phospholipid)” value amounted to 135.46 mg/dL. Besides, the “TG (plasma triglyceride)” value turned out to be 1.25 mmol/L, the “Total-C (plasma total cholesterol)” value came out at 5.35 mmol/L and the nonHDL-C is given as 4.36 mmol/L.
For `O=C[C@H](O)[C@@H](O)[C@H](O)[C@H](O)CO` [GLU, D-glucose], the “AI, atherogenic index” value is listed as 3.76; the “APO-A I/APO-B” value is listed as 2.92; the ApoA-I was 27.23 mg/dL; the ApoB is recorded as 9.32 mg/dL. The “FFA (plasma free fatty acid)” value came out at 0.49 mmol/L; the HDL-C was 0.82 mmol/L; the “HTR, (HDL-C/Total-C) × 100” value is 20.19; the “PL (plasma phospholipid)” value was 104.86 mg/dL. Further, the “TG (plasma triglyceride)” value is reported as 1.28 mmol/L, the “Total-C (plasma total cholesterol)” value is 4.07 mmol/L and the nonHDL-C turned out to be 3.25 mmol/L.
Regarding `O=C(CO)[C@H](O)[C@H](O)[C@H](O)CO` [PSI, D-psicose], the “APO-A I/APO-B” value amounted to 3.80; the “HTR, (HDL-C/Total-C) × 100” value is 42.98; the “PL (plasma phospholipid)” value is reported as 107.23 mg/dL.
As for `O=C(CO)[C@@H](O)[C@H](O)[C@H](O)CO` [FRU, D-fructose], the “AI, atherogenic index” value was 4.55; the “APO-A I/APO-B” value is recorded as 2.77; the ApoA-I is 27.69 mg/dL; the ApoB came out at 9.96 mg/dL. The “FFA (plasma free fatty acid)” value is reported as 0.48 mmol/L; the HDL-C was found to be 0.83 mmol/L; the “HTR, (HDL-C/Total-C) × 100” value stood at 20.62; the “PL (plasma phospholipid)” value is 115.27 mg/dL. The “TG (plasma triglyceride)” value turned out to be 1.17 mmol/L, the “Total-C (plasma total cholesterol)” value amounted to 4.14 mmol/L and the nonHDL-C was 3.32 mmol/L.

In another experiment the test system is Fatty acid β-oxidation. Nature of the experiment: Hepatic fatty acid β-oxidation activity. Format: in vivo, C57BL/6J mice. As to conditions: FIG. 4B, liver, HFD+5% w/w in diet, 16 weeks. The protocol: as §1, with “animals. Samples were prepared and analyzed according to the method developed by Hulcher and Oleson. Specifically, the activity of fatty acid synthase (FAS) as a hepatic lipid regulating enzyme was measured by spectrophotometric assay according to the method described by Nepokroeff et al. Each sample was mixed with 100 μl of cytoplasmic fraction and the mixture was allowed to react at 30° C. for 2 min. A reduction in absorbance at 340 nm was measured. Fatty acid synthase (FAS) activity units were expressed as nanomoles (nmol) of NADPH oxidized for 1 min per mg of cytoplasmic fraction. Fatty acid β-oxidation activity was measured by monitoring the reduction of NAD^+ to NADH in the presence of palmitoyl-CoA, as described by Lazarow. β-oxidation activity units were expressed as nanomoles (nmol) of NADH produced for 1 min per mg of mitochondrial protein.” for “animals.”
For the molecule `OC[C@@H](O)[C@@H](O)CO` [ERY, erythritol], the “hepatic fatty acid β-oxidation activity” value is “increased significantly compared to those in the ND group”.
On to `O=C[C@H](O)[C@@H](O)[C@H](O)[C@H](O)CO` [GLU, D-glucose], for which the “hepatic fatty acid β-oxidation activity” value is recorded as “increased significantly compared to those in the ND group”.
Take `O=C(CO)[C@H](O)[C@H](O)[C@H](O)CO` [PSI, D-psicose]: the “hepatic fatty acid β-oxidation activity” value was “decreased significantly compared to those in other high-fat diet groups”.
As for `O=C(CO)[C@@H](O)[C@H](O)[C@H](O)CO` [FRU, D-fructose], the “hepatic fatty acid β-oxidation activity” value is given as “increased significantly compared to those in the ND group”.
